Reference: PubChem BioAssay (NCI)
Several values for one entry are separate records, joined by “and”; a condition that tells them apart may be missing. Identical values can stand only once.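 Cultured in 96-well plates, cells were exposed to test compound for 48 hours across five concentrations. The concentration for 50% growth inhibition is given as GI50. The concentration for full growth arrest is given as TGI.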

How the values were obtained:
Assay in all cases: inhibition of tumour cell growth, NCI panel, 48 h
[1] = tested on: RPMI-8226 leukemia
[2] = tested on: IGROV1 ovarian
[3] = tested on: OVCAR-8 ovarian
[4] = tested on: KM12 colon
[5] = tested on: HT29 colon
[6] = tested on: ACHN renal
[7] = tested on: K-562 leukemia
[8] = tested on: SK-OV-3 ovarian
[9] = tested on: M14 melanoma
[10] = tested on: HCT-116 colon

| Compound | GI50 [1] | TGI [1] | GI50 [2] | TGI [2] | GI50 [3] | TGI [3] [µM] | GI50 [4] | TGI [4] | GI50 [5] | TGI [5] [µM] | GI50 [6] | TGI [6] [µM] | GI50 [7] | TGI [7] [µM] | GI50 [8] | TGI [8] | GI50 [9] | TGI [9] [µM] | GI50 [10] | TGI [10] [µM] |
| --- | --- | --- | --- | --- | --- | --- | --- | --- | --- | --- | --- | --- | --- | --- | --- | --- | --- | --- | --- | --- |
| C[C@@H](NC(=O)Cc1cc(F)cc(F)c1)C(=O)N[C@@]1(C)N=C(c2ccccc2)c2ccccc2N(C)C1=O | 2110 nM | 10.5 µM | > 65.6 µM | > 100 µM | 65.1 µM | > 100 | 41300 nM | > 100 µM | 49400 nM | > 100 | > 84.5 µM | > 100 | 32600 nM | > 94.1 | > 100 µM | > 100 µM | 26000 nM | > 86.6 | 32200 nM | > 100 |
| O=C1c2ccccc2-c2cc3ccccc3c(=O)n21 |  | > 100 µM |  | > 100 µM |  | > 100 |  | > 100 µM |  | > 100 |  | > 100 |  | > 100 |  |  |  | > 100 |  | > 100 |
| O=C(CCCCCCCCCCc1ccccc1)c1c(O)cccc1O |  | > 100 µM |  | 60.5 µM |  | 38.1 |  | 33.2 µM |  | 88 |  | 69.9 |  | 58.7 |  | > 100 µM |  | 35.6 |  | 48.3 |
| COC(=O)[C@H](Cc1ccccc1)NC(=O)c1csc([C@@H](C[C@H](C(C)C)N(C)C(=O)[C@@H](NC(=O)[C@H]2CCCCN2C)C2CC2)OC(C)=O)n1 | 19 nM | > 25 µM | 0.0452 µM | > 25 µM | 0.0898 µM | > 25 | 84.4 nM | > 25 µM | 17.5 nM | > 25 | 0.15 µM | > 25 | 11.8 nM | > 25 | 0.121 µM | > 25 µM | 32.8 nM |  | 19.7 nM | > 25 |
| CCN(CC)CCC(=O)Nc1ccc(Cn2nnc3c2C(=O)c2nnn(Cc4ccc(NC(=O)CCN(CC)CC)cc4)c2C3=O)cc1 | 530 nM | 3.15 µM | 0.411 µM | 1.37 µM | 1.83 µM | 4.41 | 728 nM | 2.46 µM | 304 nM | 0.787 | 12.5 µM | 34.1 | 669 nM | > 37.9 | 2.08 µM | 5.88 µM | 1490 nM | 3.43 | 283 nM | 1.12 |
| COc1ccc(C[C@H]2C[C@@H](O)[C@@H](C)C/C=C/Cc3cccc(O)c3C(=O)O2)cn1 |  |  | 13 µM | 34.4 µM | 29.4 µM | > 100 | 23500 nM | 62.4 µM | 31000 nM | > 100 | 25.5 µM | 65.9 | 12200 nM | 28.6 | 45.6 µM | > 100 µM | 18700 nM | 36.6 | 19500 nM | 37.6 |
| CO[C@H]1C=C[C@]23c4cc5c(cc4CN(CC2O)[C@@H]3C1)OCO5 (stereo not given in full) |  | > 100 µM |  | 26 µM |  | 38.5 |  | 28.3 µM |  | 39.7 |  | 6.73 |  | > 100 |  | 3.3 µM |  | > 100 |  | 19.3 |
| COc1ccc2c(c1O)[C@@]13C=C(O)C(=O)C=C1[C@@H](C2)N(C)CC3 |  | > 100 µM |  | > 100 µM |  | > 100 |  | > 100 µM |  | > 100 |  | > 100 |  | > 100 |  | > 100 µM |  | > 100 |  | > 100 |
| Cc1nnc2n1N=C(CC(=O)c1ccc(O)cc1O)CN2N |  |  |  | > 100 µM |  |  |  | > 100 µM |  | > 100 |  | > 100 |  | > 100 |  | > 100 µM |  | > 100 |  | > 100 |
| S=C(Nc1ccccc1)Nc1[nH]c(=S)sc1-c1nc2ccccc2[nH]1 |  | > 100 µM |  | > 100 µM |  | > 100 |  | > 100 µM |  | > 100 |  | > 100 |  | > 100 |  | 80.9 µM |  | > 100 |  |  |
| CC1Cc2c(N(C)C)ncnc2N(C)c2ccc(Cl)cc21 (stereo not given) | 3530 nM | 17.3 µM | 8.48 µM | > 100 µM | 9.17 µM | > 100 | 3150 nM | > 100 µM | 3220 nM | 37 | 7.59 µM | > 100 | 781 nM | > 100 | 4.93 µM | 72.1 µM | 2390 nM | > 100 | 3480 nM | 23.6 |
| Cn1c(=O)n(-c2ccc(C(C)(C)C#N)cc2)c2c3cc(-c4cnc5ccccc5c4)ccc3ncc21 | < 11.6 nM and 6.03 nM and < 11.4 nM | 0.385 µM and 3.13 µM and 1.24 µM | < 0.01 µM and 0.00363 µM | 0.0258 µM and 0.0381 µM | 0.0101 µM and 0.00582 µM and < 0.01 µM |  | 13.4 nM and 6.83 nM and 15.3 nM | 1.28 µM and > 10 µM | 10.1 nM and 6.03 nM and < 10 nM |  | < 0.0121 µM and 0.00573 µM and < 0.01 µM | > 100 | 31.5 nM and 7.31 nM and 11.8 nM | > 100 | < 0.01 µM and 0.00494 µM | 0.0442 µM and 0.0549 µM and 0.0293 µM | 18 nM and 6.56 nM and < 10 nM |  | 31.2 nM and 9.38 nM and 29.8 nM | > 100 |
| O=C1OC(c2ccc(O)cc2)(c2ccc(O)cc2)c2cccc3cccc1c23 | 18600 nM | 50.5 µM | 17.6 µM | 42.7 µM | 16.7 µM | 44.1 | 10500 nM | 25.2 µM | 19400 nM | 39.6 | 14.3 µM | 27.9 | 15700 nM | 61.3 | 18.8 µM | 33.1 µM | 16400 nM | 33 | 15600 nM | 31.5 |
| Cc1ccc(NCSc2ccc(Cl)cc2)cc1 | 2290 nM | > 100 µM | 15.3 µM | > 100 µM | > 100 µM | > 100 | 9910 nM | > 100 µM | > 100000 nM | > 100 | > 100 µM | > 100 | > 100000 nM | > 100 | 67 µM | > 100 µM | 77100 nM | > 100 | 55400 nM | > 100 |
| CC[C@@]1(OC(=O)CN)C(=O)OCc2c1cc1n(c2=O)Cc2cc3cc(N)ccc3nc2-1 |  |  | 0.0974 µM | 1.39 µM |  |  | 120 nM | 0.811 µM | 127 nM | > 100 | < 0.01 µM | 0.151 |  |  |  |  | < 10 nM | 0.122 |  |  |
